The record followed here is patent publication US20060276465A1, “1,2-di(cyclic) substituted benzene compounds” (Eisai R&D Management Co., Ltd., priority 2003, published 2006).

pIC50: −log10 of the molar value. Counter-ions that a name gives are not always drawn.

Assay [1] relates to colon-infiltrating neutrophils (myeloperoxidase enzyme activity). Briefly: Oxazolone-induced colon neutrophil infiltration model (colon myeloperoxidase activity). The assay is classed as in vivo. The note with it: myeloperoxidase enzyme activity inhibitory rate vs oxazolone control group; 30 mg/kg orally 30 minutes prior to intrarectal challenge; colon 4 hours after challenge; male Balb/c mice. The text has this: The “di(C1-6 alkyl)amino” of Group D1 may be either symmetric or asymmetric, and as examples there may be mentioned straight-chain or branched-chain groups such as dimethylamino, methylethylamino, diethylamino, methylpropylamino, ethylpropylamino, dipropylamino, diisopropylamino, dibutylamino, diisobutylamino, di(s-butyl)amino, di(t-butyl)amino, methylpentylamino, dipentylamino, diisopentylamino, di(2-methylbutyl)amino, di(neopentyl)amino, di(1-ethylpropyl)amino, dihexylamino, methylisohexylamino, diisohexylamino, di(4-methylpentyl)amino, di(3-methylpentyl)amino, di(2-methylpentyl)amino, di(1-methylpentyl)amino, di(3,3-dimethylbutyl)amino, di(2,2-dimethylbutyl)amino, di(1,1-dimethylbutyl)amino, di(1,2-dimethylbutyl)amino, di(1,3-dimethylbutyl)amino, di(2,3-dimethylbutyl)amino, di(1-ethylbutyl)amino or di(2-ethylbutyl)amino, among which dimethylamino, methylethylamino or diethylamino is preferred, and dimethylamino is particularly preferred.
The “C2-7 alkylcarbonylamino” of Group D1 is an amino group having the aforementioned “C2-7 alkylcarbonyl” bonded thereto, and as examples there may be mentioned straight-chain or branched-chain groups such as acetylamino, ethylcarbonylamino, n-propylcarbonylamino, isopropylcarbonylamino, n-butylcarbonylamino, isobutylcarbonylamino, s-butylcarbonylamino, t-butylcarbonylamino, pentylcarbonylamino, isopentylcarbonylamino, 2-methylbutylcarbonylamino, neopentylcarbonylamino, 1-ethylpropylcarbonylamino, hexylcarbonylamino, isohexylcarbonylamino, 4-methylpentylcarbonylamino, 3-methylpentylcarbonylamino, 2-methylpentylcarbonylamino, 1-methylpentylcarbonylamino, 3,3-dimethylbutylcarbonylamino, 2,2-dimethylbutylcarbonylamino, 1,1-dimethylbutylcarbonylamino, 1,2-dimethylbutylcarbonylamino, 1,3-dimethylbutylcarbonylamino, 2,3-dimethylbutylcarbonylamino, 1-ethylbutylcarbonylamino or 2-ethylbutylcarbonylamino, among which amino groups having C2-5 alkylcarbonyl bonded thereto are preferred, and acetylamino or ethylcarbonylamino is particularly preferred.
As examples of the “3- to 8-membered cycloalkyl” of the “3- to 8-membered cycloalkyl optionally substituted with a substituent selected from Group H1” of Group D1 and the “3- to 8-membered cycloalkyl” of Group D2 (mentioned below) there may be mentioned the same ones listed above, among which cyclopropyl, cyclobutyl, cyclopentyl or cyclohexyl is preferred, cyclopropyl or cyclobutyl is more preferred, and cyclopropyl is most preferred.
As exampled of the “C2-7 alkoxycarbonyl” of Group D1 there may be mentioned the same ones listed above, among which methoxycarbonyl or ethoxycarbonyl is preferred. […]

The subject of another assay is Jurkat cells. As to the kind of experiment: Jurkat cell adhesion system (adhesion to immobilized human fibronectin, PMA-stimulated). As to conditions: concentration inhibiting by 50% the PMA-stimulated increase in adhered Jurkat cells on human fibronectin. The assay is classed as cell-based. The text has this: The “C1-6 haloalkyl” of Group A1 and Group A2 (mentioned below) is aforementioned “C1-6 alkyl” having 1-6 aforementioned “halogen” bonded thereto, as examples there may be mentioned straight-chain or branched-chain alkyl groups such as methyl, ethyl, n-propyl, isopropyl, n-butyl, isobutyl, s-butyl, t-butyl, pentyl, isopentyl, 2-methylbutyl, neopentyl, 1-ethylpropyl, hexyl, isohexyl, 4-methylpentyl, 3-methylpentyl, 2-methylpentyl, 1-methylpentyl, 3,3-dimethylbutyl, 2,2-dimethylbutyl, 1,1-dimethylbutyl, 1,2-dimethylbutyl, 1,3-dimethylbutyl, 2,3-dimethylbutyl, 1-ethylbutyl or 2-ethylbutyl, having fluorine or chlorine bonded thereto, among which C1-4 alkyl having 1 to 3 fluorine or chlorine bonded thereto is preferred, and trifluoromethyl is particularly preferred.
As examples of the “C2-7 alkylene”, where C2-7 alkylene is permissible only in the case that a spiro union is formed together with the substituted 5- to 10-membered cycloalkyl or the substituted 5- to 10-membered cycloalkenyl, of Group A1 and Group A2 (mentioned below), there may be mentioned straight-chain or branched-chain groups such as 1,2-ethylene, trimethylene, propylene, ethylethylene, tetramethylene, pentamethylene, hexamethylene or heptamethylene, among which 1,2-ethylene, trimethylene, tetramethylene or pentamethylene is preferred, and 1,2-ethylene, tetramethylene or pentamethylene is particularly preferred.
As examples of the “halogen” of Group W1 there may be mentioned the same ones listed above, among which fluorine or chlorine is preferred.
As examples of the “C1-6 alkyl” of Group W1 there may be mentioned the same ones listed above, among which C1-4 groups are preferred, and methyl or ethyl is particularly preferred.
The “C2-7 alkoxyalkyl” of Group W1 is aforementioned “C1-6 alkyl” having the aforementioned “C1-6 alkoxy” bonded thereto, of 2 to 7 carbon (total number of carbon), and as examples there may be mentioned methoxymethyl, methoxyethyl, ethoxyethyl, methoxypropyl or propoxyethyl, among which methoxymethyl is preferred.
As examples of the “C1-6 alkoxy” of the “C1-6 alkoxy optionally substituted with a substituent selected from Group T1” of Group W1 there may be mentioned the same ones listed above, among which C1-4 groups are preferred, and methoxy, ethoxy, isopropoxy or propoxy is particularly preferred.

For assay [2], the system named is human peripheral blood neutrophils. Briefly: Human peripheral blood neutrophil adhesion system (adhesion to HUVEC immobilized plate, PMA-stimulated). The assay is classed as cell-based. The note with it: concentration inhibiting by 50% the PMA-stimulated increase in neutrophils adhered to HUVEC. The text has this: As examples of the “C2-7 alkylcarbonyl” of Group W1 there may be mentioned the same ones listed above, among which C2-5 groups are preferred, and acetyl is particularly preferred.
As examples of the “C1-6 alkyl” for R^6X and R^7X there may be mentioned the same ones listed above.
As examples of the “halogen” of Group C1 there may be mentioned the same ones listed above, among which bromine, fluorine or chlorine is preferred.
As examples of the “C1-6 alkyl” of Group C1 there may be mentioned the same ones listed above, among which C1-4 groups are preferred, and methyl is particularly preferred.
As examples of the “C1-6 alkoxy” of Group C1 there may be mentioned the same ones listed above, among which C1-4 groups are preferred, and methoxy or ethoxy is particularly preferred.
As examples of the “halogen” of Group D1 and Group D2 (mentioned below) there may be mentioned the same ones listed above, among which fluorine or chlorine is preferred.
As examples of the “C1-6 alkoxy” of Group D1 and Group D2 (mentioned below) there may be mentioned the same ones listed above, among which C1-4 groups are preferred, and methoxy or ethoxy is particularly preferred.
The “C1-6 alkylthio” of Group D1 is a thio group having the aforementioned “C1-6 alkyl” bonded thereto, and as examples there may be mentioned straight-chain or branched-chain groups such as methylthio, ethylthio, propylthio, isopropylthio, […], isobutylthio, s-butylthio, t-butylthio, pentylthio, isopentylthio, 2-methylbutylthio, neopentylthio, 1-ethylpropylthio, hexylthio, isohexylthio, 4-methylpentylthio, 3-methylpentylthio, 2-methylpentylthio, 1-methylpentylthio, 3,3-dimethylbutylthio, 2,2-dimethylbutylthio, 1,1-dimethylbutylthio, 1,2-dimethylbutylthio, 1,3-dimethylbutylthio, 2,3-dimethylbutylthio, 1-ethylbutylthio or 2-ethylbutylthio, among which C1-4 groups are preferred, and methylthio or ethylthio is particularly preferred.
As examples of the “C1-6 alkylsulfonyl” of Group D1 there may be mentioned the same ones listed above, among which C1-4 groups are preferred, and methylsulfonyl or ethylsulfonyl is particularly preferred.
The “C1-6 alkylsulfinyl” of Group D1 is a sulfinyl group having the aforementioned “C1-6 alkyl” bonded thereto, as examples there may be mentioned straight-chain or branched-chain groups such as methylsulfinyl, ethylsulfinyl, propylsulfinyl, isopropylsulfinyl, […], isobutylsulfinyl, s-butylsulfinyl, t-butylsulfinyl, pentylsulfinyl, isopentylsulfinyl, 2-methylbutylsulfinyl, neopentylsulfinyl, 1-ethylpropylsulfinyl, hexylsulfinyl, isohexylsulfinyl, 4-methylpentylsulfinyl, 3-methylpentylsulfinyl, 2-methylpentylsulfinyl, 1-methylpentylsulfinyl, 3,3-dimethylbutylsulfinyl, 2,2-dimethylbutylsulfinyl, 1,1-dimethylbutylsulfinyl, 1,2-dimethylbutylsulfinyl, 1,3-dimethylbutylsulfinyl, 2,3-dimethylbutylsulfinyl, 1-ethylbutylsulfinyl or 2-ethylbutylsulfinyl, among which C1-4 groups are preferred, and methylsulfinyl or ethylsulfinyl is particularly preferred.

Usually pIC50 stands for the IC50 on a negative log10 scale, so that one unit is a factor of ten. High values mean a low IC50, low ones a high IC50. For `CCCCN1CCN(c2cc3c(cc2C2CCC(C(C)(C)C)CC2)N(C)CCO3)CC1.Cl` (stereo not shown) [Example 7, 6-(4-t-Butylcyclohexyl)-7-(4-butylpiperazin-1-yl)-4-methyl-3,4-dihydro-2H-benzo[1,4]oxazine hydrochloride], the “Ihibitory Rate (%)” value in assay [1] was 24.0%. Further, the values for the pIC50 (with Jurkat cells; in assay [2]) were 5.31 and 4.76, respectively.

As for `CCCCN1CCN(c2ccc(N3CCC4(CC3)OCCO4)cc2C2CCC(C(C)(C)C)CC2)CC1.Cl` (stereo not shown) [Example 134], the “Ihibitory Rate (%)” value in assay [1] came to 18.0%.

Take `CCCN1CCN(c2ccc(OCCOC)cc2C2CC(C)(C)CC(C)(C)C2)CC1` [Example 12, 1-[4-(2-Methoxyethoxy)-2-(3,3,5,5-tetramethylcyclohexyl)phenyl]-4-propylpiperazine hydrochloride]: the pIC50 in the assay with Jurkat cells is 4.83; in assay [2], 4.90.

`CCCCN1CCN(c2ccc(N3CCC4(CC3)OCCO4)cc2C2CCC(C(C)(C)C)CC2)CC1.Cl` (stereo not shown) [Example 134, 8-{3-(4-t-Butylcyclohexyl)-4-(4-butylpiperazin-1-ylphenyl}-1,4-dioxa-8-aza-spiro [4.5]decane hydrochloride]: the pIC50 in the assay with Jurkat cells was 5.40; in assay [2], 5.22.

Consider `CCCCN1CCN(c2c(NC3CCOCC3)cccc2C2=CCC(C(C)(C)C)CC2)CC1.Cl` (racemic) [Example 5, [3-(4-t-Butylcyclohex-1-enyl)-2-(4-butylpiperazin-1-yl)phenyl](tetrahydropyran-4-yl)amine hydrochloride], for which the “Ihibitory Rate (%)” value in assay [1] stood at 3.0%. Further, the pIC50 in the assay with Jurkat cells is 5.54; in assay [2], 4.96.

For `CCCN1CCN(c2cc3c(cc2C2=CCC(C(C)(C)C)CC2)N(C)CCO3)CC1` (racemic) [Example 8, 6-(4-t-Butylcyclohex-1-enyl)-4-methyl-7-(4-propylpiperazin-1-yl)-3,4-dihydro-2H-benzo[1,4]oxazine hydrochloride], the negative logarithm of the IC50 (pIC50) in the assay on Jurkat cells was 5.47; in assay [2], 4.78.

For `CCCCN1CCN(c2cc3c(cc2C2CCC(C(C)(C)C)CC2)N(C)C(=O)CO3)CC1` (stereo not shown) [Example 6, 6-(4-t-Butylcyclohexyl)-7-(4-butylpiperazin-1-yl)-4-methyl-4H-benzo[1,4]oxazin-3-one], the “Ihibitory Rate (%)” value in assay [1] came to 48.0%. Besides, the pIC50 is 5.54 with Jurkat cells and 4.93 in assay [2].
